According to patent US6723897B2, “Methods for controlling gibberellin levels” (Monsanto Technology, LLC, priority 1998, dated 2004):

Key:
Type in all cases: in vivo, Glycine max
[1] = system: non-transgenic soybean line A4922; experiment: Field trial of seed coatings under soil compaction / different soils, wild-type soybean; settings: for Count (emergence) / Height (total plant height): A4922
Protocol: The second trial (data reported in Tables 22-24) tested the precursors under conditions of soil compaction.
As noted above, the second trial tested the noted precursors under conditions of soil compaction. These experiments are performed in the same manner as in the first trial, except that the soil is compacted with an all-terrain vehicle.
“Height” equals total plant height in cm.

[2] = system: transgenic line 719 soybean; experiment: Field trial of seed coatings under soil compaction / different soils, GA-deficient soybean; settings: for Count (emergence) / Dwarfs (number of dwarfs not rescued) / Dwarfs (number not rescued): Line 719
[3] = system: wild-type soybean line A3237; experiment: Experiment II second greenhouse test, seed imbibition, wild-type soybean; settings: 0.0025 mg/ml; seeds imbibed 6 hours
Protocol: (The compounds are tested in Experiment I at only one concentration, i.e., 0.25 mg/ml). Test tubes contained […] of ethanol solution per tube. Final volumes are made up to 30 ml with deionized water. After shaking, the treatment solutions (15 ml each) are transferred to each of two 50 ml test tubes. […] Twenty seeds are used in each treatment. Dry seed, ethanol/water-imbibed seed (1% ethanol in water, v/v), and water-imbibed seeds are included as controls. Seeds are imbibed for 6 hours in the test solutions, then planted in bread pans containing Metromix 350 (The Scotts Company, Marysville, Ohio), and covered with 0.5″ Metro-mix. Covered pans are transferred to the greenhouse and subirrigated. Illumination is at a light intensity of 300-400 μmolm^−2s^−1 photosynthetic photon flux; 16 hours light/8 hours dark. Subsequent waterings are also through sub-irrigation until the test is terminated three weeks later. Observations included the number of dwarf, intermediate, and tall plants; plant height; uniformity of rescue; and any visual effects. Digital photographs are also taken.

[4] = Heavy soil - Loose, target rate 0.5 μg/seed, Table 23
[5] = Heavy soil - Loose, target rate 2.0 μg/seed, Table 23
[6] = Heavy soil - Loose, target rate 4.0 μg/seed, Table 23
[7] = Heavy soil - compacted, target rate 0.5 μg/seed, Table 23
[8] = Heavy soil - compacted, target rate 2.0 μg/seed, Table 23
[9] = Heavy soil - compacted, target rate 4.0 μg/seed, Table 23
[10] = Heavy soil - loose, target rate 0.5 μg/seed, Table 22
[11] = Heavy soil - loose, target rate 2.0 μg/seed, Table 22
[12] = Light soil - Compacted, target rate 0.5 μg/seed, Table 22
[13] = Light soil - Compacted, target rate 2.0 μg/seed, Table 22
[14] = Light soil - Loose, target rate 0.5 μg/seed, Table 24
[15] = Light soil - Loose, target rate 2.0 μg/seed, Table 24
[16] = Light soil - Loose, target rate 4.0 μg/seed, Table 24
[17] = Light soil - compacted, target rate 0.5 μg/seed, Table 24
[18] = Light soil - compacted, target rate 2.0 μg/seed, Table 24
[19] = Light soil - compacted, target rate 4.0 μg/seed, Table 24

Which results are given for `C=C1C[C@]23C[C@@]1(O)CC[C@H]2[C@@]12C=C[C@H](OC(C)=O)[C@@](C)(C(=O)O1)[C@H]2[C@@H]3C(=O)O` [GA3-3-acetate]?
Count (emergence) [1, 4]: 29.0 a-d; Height (total plant height) [1, 4]: 5.3 g·cm·days; Count (emergence) [1, 5]: 15.3 f; Height (total plant height) [1, 5]: 6.0 c-f cm; Count (emergence) [1, 6]: 7; Height (total plant height) [1, 6]: 8.0 ab cm; Count (emergence) [1, 7]: 4.0 de; Height (total plant height) [1, 7]: 5.3 b-e cm; Count (emergence) [1, 8]: 6.0 cde; Height (total plant height) [1, 8]: 5.7 bcd cm; Count (emergence) [1, 9]: 0 e; Count (emergence) [1, 10]: 29 a-d; Height (total plant height) [1, 10]: 5.3 g·cm·days; Count (emergence) [1, 11]: 15 f; Height (total plant height) [1, 11]: 6.0 c-f cm; Count (emergence) [1, 12]: 28 bcd; Height (total plant height) [1, 12]: 6.3 cm·days; Count (emergence) [1, 13]: 18 def; Height (total plant height) [1, 13]: 8.7 c cm; Count (emergence) [1, 14]: 44.3 abc; Height (total plant height) [1, 14]: 6.3 f cm; Count (emergence) [1, 15]: 42.0 abc; Height (total plant height) [1, 15]: 9.7 bc cm; Count (emergence) [1, 16]: 42.3 abc; Height (total plant height) [1, 16]: 10.3 b cm; Count (emergence) [1, 17]: 27.7 cd; Height (total plant height) [1, 17]: 6.3 cm·days; Count (emergence) [1, 18]: 18.0 def; Height (total plant height) [1, 18]: 8.7 c cm; Count (emergence) [1, 19]: 22.7 dc; Height (total plant height) [1, 19]: 11.0 ab cm; plant height dose/response in wild-type line A4922 (FIG. 40) ([1]; in vivo): dose/response curves similar to that of GA3; Count (emergence) [2, 4]: 31.3 bcd; Dwarfs (number of dwarfs not rescued) [2, 4]: 0.3 de; Count (emergence) [2, 5]: 27.3 cd; Dwarfs (number of dwarfs not rescued) [2, 5]: 0 e; Count (emergence) [2, 6]: 18.3 ef; Dwarfs (number of dwarfs not rescued) [2, 6]: 0 e; Count (emergence) [2, 7]: 10.3 c-f; Dwarfs (number of dwarfs not rescued) [2, 7]: 0.3 cd; Count (emergence) [2, 8]: 7.3 efg; Dwarfs (number of dwarfs not rescued) [2, 8]: 0 days; Count (emergence) [2, 9]: 2.0 g; Dwarfs (number of dwarfs not rescued) [2, 9]: 0 days; Count (emergence) [2, 10]: 31 bcd; Dwarfs (number of dwarfs not rescued) [2, 10]: 3.3 c; Count (emergence) [2, 11]: 27 cd; Dwarfs (number of dwarfs not rescued) [2, 11]: 0.3 de; Count (emergence) [2, 12]: 25 def; Dwarfs (number of dwarfs not rescued) [2, 12]: 0 days; Count (emergence) [2, 13]: 22 efg; Dwarfs (number of dwarfs not rescued) [2, 13]: 0 days; Count (emergence) [2, 14]: 45.3 ab; Dwarfs (number not rescued) [2, 14]: 0.3 e; Count (emergence) [2, 15]: 43.3 ab; Dwarfs (number not rescued) [2, 15]: 0 c; Count (emergence) [2, 16]: 42.7 ab; Dwarfs (number not rescued) [2, 16]: 0 c; Count (emergence) [2, 17]: 25.3 def; Dwarfs (number not rescued) [2, 17]: 0; Count (emergence) [2, 18]: 22.0 efg; Dwarfs (number not rescued) [2, 18]: 0; Count (emergence) [2, 19]: 33.7 a-e; Dwarfs (number not rescued) [2, 19]: 0; rank of potential for rescuing GA-deficient dwarf soybeans without decreasing emergence ([2]; based on the last two field trials): GA9>GA5>GA3-3-acetate>GA3>GA12; best to least selectivity order ([2]; emergence under soil compaction, margin of selectivity, rescue without overelongation, Table 22): GA9>GA5>GA3-3-acetate>GA3; Significant Visual Observations on Line A3237 [3]: Normal height
